Measured values: patent US9526680B2, “Method for searching for malodor control agent, malodor control agent, and malodor control method” (Kao Corporation, priority 2010, dated 2016)
“Also recorded” adds a separate entry of the source.

Assays:
[1] = Sensory evaluation test of hexanoic acid odor inhibition; format: in vivo
Method: Cotton balls were introduced into a glass bottle (Hakuyo Glass Co., Ltd. No. 11, capacity 110 ml), and hexanoic acid diluted 100 times with propylene glycol, nonanoic acid diluted 10 times with propylene glycol, or isovaleric acid diluted 1000 times with propylene glycol, as a malodor, and a test substance were added dropwise in an amount of […] to the cotton balls. The glass bottle was left to stand overnight at room temperature, and the odor molecules were sufficiently volatilized in the glass bottle. A sensory evaluation test was carried out by a panel of three panelists (5 panelists for isovaleric acid), and while the intensity of odor in the case of adding dropwise the malodor alone was rated as 5, the intensity of the malodor in the case of incorporating a test substance was evaluated on the basis of a system of 20 grades from 0 point to 10 points (0.5 points per grade).
Regarding the test substance, florhydral (Givaudan SA), bourgeonal (Givaudan SA), hydroxycitronellal (Givaudan SA, International Flavors & Fragrances, Inc., and the like), 4-isopropylcyclohexanecarbaldehyde (synthesized according to a method described in JP-A-2-188549), 4-(2-methoxyphenyl)-2-methyl-2-butanol (JP-A-9-111281), florosa (Givaudan SA), isocyclocitral (Givaudan SA, International Flavors & Fragrances, Inc., and the like), tripral (International Flavors & Fragrances, Inc.), and Pollenal II (Kao Corp.), which had been diluted 100 times with propylene glycol, were used for hexanoic acid; florhydral that had been diluted 10 times with propylene glycol was used for nonanoic acid; and florhydral that had been diluted 1000 times with propylene glycol was used for isovaleric acid.

[2] = biological target: T1, OR10A6 (Homo sapiens, UniProt Q8NH74); assay: Luciferase reporter gene assay, OR10A6 expressed in HEK293 cells; format: cell-based; details: for Inhibition ratio of OR10A6 response: response to hexanoic acid, test substance added together with hexanoic acid, HEK293; for Response of OR10A6 to the odor substance: fold increase of luciferase emission, 1 mM hexanoic acid or 300 μM nonanoic acid, or concentration series up to 1000 μM
T1 construct: expressed in transfected cells; host or cells: HEK293
T1 sequence (Q8NH74 1-314): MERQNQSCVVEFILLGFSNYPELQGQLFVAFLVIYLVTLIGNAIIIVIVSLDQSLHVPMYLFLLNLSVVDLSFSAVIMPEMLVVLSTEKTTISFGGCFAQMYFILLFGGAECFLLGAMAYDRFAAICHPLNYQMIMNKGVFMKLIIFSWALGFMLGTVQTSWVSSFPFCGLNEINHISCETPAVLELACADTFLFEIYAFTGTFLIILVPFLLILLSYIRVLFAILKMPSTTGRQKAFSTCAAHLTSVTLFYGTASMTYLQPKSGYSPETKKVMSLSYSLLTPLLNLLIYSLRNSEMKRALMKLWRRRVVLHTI
Method: (§1) Cloning of human olfactory receptors was performed based on the sequence information registered in GenBank, through PCR with human genomic DNA female (G1521: Promega) as a template. Each of the genes amplified through PCR was inserted into a pENTR vector (Invitrogen) according to an instruction manual. Then, the gene-inserted vector was digested with NotI and AscI, and the obtained fragments were inserted into NotI and AscI sites located downstream of the Flag-Rho tag sequence in the pME18S vector.
(§2) Each of the 350 types of human olfactory receptors was expressed in HEK293 cells. A reaction solution having a composition shown in Table 2 was prepared on a clean bench, and left to stand for 15 minutes. The solution was dispensed to each well of a 96-well plate (BD). Subsequently, […] cells (100 μL, 3×10^5 cells/cm^2) were seeded in each well and cultured for 24 hours in an incubator at 37° C. and under 5% CO2 conditions.
(§3) The olfactory receptor expressed in HEK293 cell was conjugated with cell-intrinsic Gas to activate adenylate cyclase, and thereby the level of intracellular cAMP was increased. For the measurement of the response to odor in this study, the luciferase reporter gene assay was used, in which an increase in the amount of intracellular cAMP was monitored by using the emission value originating from firefly luciferase gene (fluc2P-CRE-hygro) as an indicator. Furthermore, a gene product obtained by fusing renilla luciferase gene in the downstream of CMV promoter (hRluc-CMV) was simultaneously introduced, and this was used as an internal standard for correcting an error in the transgenesis efficiency or the number of cells. The medium was removed from the culture prepared in the above-described section 3) by using a Pipetman, and 75 μl of a solution containing an odor substance (1 mM hexanoic acid or 300 μM nonanoic acid) prepared in CD293 medium (Invitrogen) was added thereto. The cells were cultured for 4 hours in a CO2 incubator, and the luciferase gene was sufficiently expressed in the cells. For the measurement of luciferase activity, the measurement was carried out by using a Dual-Glo™ luciferase assay system (Promega) according to the operation manual of the product. A value calculated by dividing the emission value, derived from a firefly luciferase induced by the stimulation with an odor substance, by the emission value in cells that were not-stimulated with an odor substance, was designated as a fold increase, and used as an index of response intensity.
(§4) OR2W1, OR10A6, OR51E1, OR51I2, and OR51L1 were respectively expressed in HEK293 cells by the same method as that used in Example 1, and a luciferase assay was carried out. In the luciferase assay, hexanoic acid was used as the odorous substance, and test substances were added together with hexanoic acid. The response of the olfactory receptors to hexanoic acid was measured, and a decrease in the receptor response to the addition of test substances was evaluated.
(§5) The inhibition ratios of the receptor response to test substances were calculated as follows. The emission value (Y) obtained from the cells in which the same receptors were introduced but no odor stimulation was conducted, was subtracted from the emission value derived from firefly luciferase (X) induced by odor stimulation with hexanoic acid alone. Similarly, the emission value (Y) obtained from the cells in which no odor stimulation was conducted, was subtracted from the emission value (Z) caused by stimulation with a mixture of hexanoic acid and a test substance. By the following calculation formula, the inhibitory activity of the test substance to receptor response was calculated based on the increment of the emission value (X−Y) caused by stimulation of hexanoic acid alone. Multiple independent experiments were performed in duplicate, and the average of each experiment was obtained. Inhibition ratio (%)={1−(Z−Y)/(X−Y)}×100

[3] = biological target: T2, OR51E1 (Homo sapiens, UniProt Q8TCB6); assay: Luciferase reporter gene assay, OR51E1 expressed in HEK293 cells; format: cell-based; details: for Response of OR51E1 to the odor substance: fold increase of luciferase emission, 1 mM hexanoic acid or 300 μM nonanoic acid, or concentration series up to 1000 μM
T2 construct: expressed in transfected cells; host or cells: HEK293
T2 sequence (Q8TCB6 1-318): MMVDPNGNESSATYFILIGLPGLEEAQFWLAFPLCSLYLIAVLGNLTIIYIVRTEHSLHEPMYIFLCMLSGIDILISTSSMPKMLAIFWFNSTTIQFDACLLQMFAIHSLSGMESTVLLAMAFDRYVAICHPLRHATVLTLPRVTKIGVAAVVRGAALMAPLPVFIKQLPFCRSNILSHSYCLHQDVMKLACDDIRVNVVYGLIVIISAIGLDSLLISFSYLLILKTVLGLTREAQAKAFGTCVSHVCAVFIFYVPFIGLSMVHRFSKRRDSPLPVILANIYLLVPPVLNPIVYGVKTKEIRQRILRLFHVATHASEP
Method: as §1, §2, §3, §4
as §5, with “(%)={1−(Z−Y)/(X−Y)}×100 […]” for “(%)={1−(Z−Y)/(X−Y)}×100”

[4] = biological target: T3, OR51I2 (Homo sapiens, UniProt Q9H344); assay: Luciferase reporter gene assay, OR51I2 expressed in HEK293 cells; format: cell-based; details: for Response of OR51I2 to the odor substance: fold increase of luciferase emission, 1 mM hexanoic acid or 300 μM nonanoic acid, or concentration series up to 1000 μM
T3 construct: expressed in transfected cells; host or cells: HEK293
T3 sequence (Q9H344 1-312): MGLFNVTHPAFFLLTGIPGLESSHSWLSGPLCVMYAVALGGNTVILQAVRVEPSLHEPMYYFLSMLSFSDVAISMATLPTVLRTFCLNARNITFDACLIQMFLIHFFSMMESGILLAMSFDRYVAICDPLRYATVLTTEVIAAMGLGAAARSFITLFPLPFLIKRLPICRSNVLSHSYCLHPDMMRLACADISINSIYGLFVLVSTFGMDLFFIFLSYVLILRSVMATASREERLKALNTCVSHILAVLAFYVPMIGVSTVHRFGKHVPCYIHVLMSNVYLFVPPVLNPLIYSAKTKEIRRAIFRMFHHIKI
Method: as §1, §2, §3, §4
as §5, with “(%)={1−(Z−Y)/(X−Y)}×100 […]” for “(%)={1−(Z−Y)/(X−Y)}×100”

[5] = biological target: T4, OR2W1 (Homo sapiens, UniProt Q9Y3N9); assay: Luciferase reporter gene assay, OR2W1 expressed in HEK293 cells; format: cell-based; details: for Response of OR2W1 to the odor substance: fold increase of luciferase emission, 1 mM hexanoic acid or 300 μM nonanoic acid, or concentration series up to 1000 μM
T4 construct: expressed in transfected cells; host or cells: HEK293
T4 sequence (Q9Y3N9 1-320): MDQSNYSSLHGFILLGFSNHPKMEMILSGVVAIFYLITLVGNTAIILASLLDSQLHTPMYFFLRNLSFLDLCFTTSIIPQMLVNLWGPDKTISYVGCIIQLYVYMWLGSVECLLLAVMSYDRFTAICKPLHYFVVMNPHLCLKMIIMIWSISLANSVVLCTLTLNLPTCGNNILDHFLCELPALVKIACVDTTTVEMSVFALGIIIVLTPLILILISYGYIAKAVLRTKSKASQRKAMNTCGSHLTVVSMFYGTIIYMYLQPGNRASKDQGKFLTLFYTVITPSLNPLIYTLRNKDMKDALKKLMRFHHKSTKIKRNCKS
Method: as §1, §2, §3, §4
as §5, with “(%)={1−(Z−Y)/(X−Y)}×100 […]” for “(%)={1−(Z−Y)/(X−Y)}×100”

[6] = biological target: T5, OR51L1 (Homo sapiens, UniProt Q8NGJ5); assay: Luciferase reporter gene assay, OR51L1 expressed in HEK293 cells; format: cell-based; details: for Response of OR51L1 to the odor substance: fold increase of luciferase emission, 1 mM hexanoic acid or 300 μM nonanoic acid, or concentration series up to 1000 μM
T5 construct: expressed in transfected cells; host or cells: HEK293
T5 sequence (Q8NGJ5 1-315): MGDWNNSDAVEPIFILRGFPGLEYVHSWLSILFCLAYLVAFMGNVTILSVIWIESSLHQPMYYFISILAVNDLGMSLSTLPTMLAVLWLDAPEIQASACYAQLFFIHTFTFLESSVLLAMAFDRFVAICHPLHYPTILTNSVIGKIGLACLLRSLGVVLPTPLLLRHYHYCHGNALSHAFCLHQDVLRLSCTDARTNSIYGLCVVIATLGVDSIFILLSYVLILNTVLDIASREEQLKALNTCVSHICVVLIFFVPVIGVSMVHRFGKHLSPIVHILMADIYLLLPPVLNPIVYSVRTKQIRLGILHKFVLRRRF
Method: as §1, §2, §3, §4
as §5, with “(%)={1−(Z−Y)/(X−Y)}×100 […]” for “(%)={1−(Z−Y)/(X−Y)}×100”

[7] = 1 mM hexanoic acid, test substance 3, 10, 30, 100, 300 μM (FIG. 4)

Molecule | Inhibition ratio of OR10A6 response [2] | Response of OR51E1 to the odor substance [3] | Response of OR10A6 to the odor substance [2] | Response of OR51I2 to the odor substance [4] | Response of OR2W1 to the odor substance [5] | Response of OR51L1 to the odor substance [6] | further results
cresol [reference compound] | – | do not respond | do not respond | do not respond | do not respond | do not respond | –
CCCCCCCCC(=O)O [nonanoic acid, reference compound] | – | exhibited response | exhibited response | – | exhibited response | – | –
CCCCCC(=O)O [hexanoic acid, reference compound] | – | exhibited response; also recorded: concentration-dependent response | exhibited response; also recorded: concentration-dependent response | exhibited response; also recorded: concentration-dependent response | exhibited response; also recorded: concentration-dependent response | exhibited response; also recorded: concentration-dependent response | –
CC1=CC(C)C(CO)CC1 (stereo not shown) [floralol, reference compound] | – | – | – | – | – | – | Inhibition of OR51E1 response to hexanoic acid (in words) [3, 7]: no response inhibiting effect; Inhibition of OR10A6 response (in words) [2]: no response inhibiting effect; Inhibition of OR51I2 response to hexanoic acid (in words) [4, 7]: no response inhibiting effect; Inhibition of OR2W1 response to hexanoic acid (in words) [5, 7]: no response inhibiting effect; Inhibition of OR51L1 response to hexanoic acid (in words) [6, 7]: no response inhibiting effect

Now from value to molecule, other results behind:

Inhibition ratio of OR10A6 response [2] | Molecule | Response of OR51E1 to the odor substance [3] | Response of OR10A6 to the odor substance [2] | Response of OR51I2 to the odor substance [4] | Response of OR2W1 to the odor substance [5] | Response of OR51L1 to the odor substance [6] | further results
2 (Inhibition ratio: 20% to 50%) | CC(C)CC1CC(C)(O)CCO1 (stereo not shown) [Florosa, tetrahydro-4-methyl-2-(2-methylpropyl)-2H-pyran-4-ol] | – | – | – | – | – | Intensity of odor ([1]; hexanoic acid odor, malodor alone rated as 5, 0 to 10 points, test substance diluted 100 times with propylene glycol, three panelists): 3.38; Inhibition of hexanoic acid odor (in words) ([1]; sensory test, test substance diluted 100 times with propylene glycol (FIG. 5, Table 4)): inhibit the hexanoic acid odor
1 (Inhibition ratio: 50% or higher) | CC(C)C1CCC(C)(C=O)CC1 (stereo not shown) [4-isopropyl-1-methylcyclohexanecarbaldehyde] | – | – | – | – | – | –
